PubChem BioAssay AID720512 (Broad Institute, 2013)
Active and inactive are the calls of the source. No rule for the calls is given here.

Target: Toxin B (TcdB) glycohydrolase, Clostridioides difficile 630
Assay: TcdB glycohydrolase inhibitors, dose response, biochemical, cherry-pick, plate reader (AID 720512)
Settings: recombinant TcdB glycohydrolase activity

| Compound | activity change, negative = inhibition (at 19.5 µM (top of the series)) | also measured |
| --- | --- | --- |
| CC(Sc1nc2ccccc2n1C)C(=O)Nc1ccc(N2CCOCC2)cc1 (stereo not drawn) | inactive |  |
| Nc1nc(CCOc2ccc(F)cc2)cs1 | inactive |  |
| COc1cc(/C=C2\SC(=S)N(NC(=O)c3cccc(O)c3)C2=O)ccc1O | inactive |  |
| Cc1ccc(CN2C(=O)CN=C(c3ccccc3)c3ccccc32)cc1 | inactive |  |
| C=CC[C@@H](CC(=O)N(CCO)Cc1ccccc1)C(=O)NC[C@@H](OC(=O)[C@@H](CC=C)CC(=O)OC(C)(C)C)c1ccccc1 | inactive |  |
| CC(=O)N1CC[C@@H]2[C@@H](CO)Nc3ccc(-c4ccccc4)cc3[C@@H]21 |  | activity change, negative = inhibition (at 21 µM (top of the series)): inactive |
| COC(=O)Cc1ccc(NC(=S)NCc2ccc(OC)cc2)cc1 | inactive |  |
| C[C@@H]1CN([C@@H](C)CO)C(=O)c2c(c3ccccc3n2C)-c2ccccc2CO[C@@H]1CN(C)C |  | activity change, negative = inhibition (at 21 µM (top of the series)): inactive |
| Cc1c(CCCC(=O)O)sc(N)c1C(=O)c1cccc(C(F)(F)F)c1 | inactive |  |
| COc1ccc(CNC(=O)Cc2cn(C)c3ccccc23)c(OC)c1 | inactive |  |
| Oc1ccc(Cc2ccc(Cl)cc2)c(O)c1 | inactive |  |
| Nc1ncc(S(=O)(=O)c2ccc([N+](=O)[O-])cc2)s1 |  | AC50: > 39 µM (inactive) |
| CC(C)OC(=O)C(=O)NNc1ccccc1 | inactive |  |
| C[C@@H]1CN([C@@H](C)CO)S(=O)(=O)c2ccc(C#Cc3ccncc3)cc2O[C@H]1CN(C)C(=O)C1CC1 | inactive |  |
| COc1cc(/C=N/Nc2ccccn2)ccc1O | inactive |  |
| COc1cc(C=NNC(=O)c2ccccc2-n2cccc2)ccc1O | inactive |  |
| Cc1ccc(C2=NS(=O)(=O)N(C)C(C(=O)NCc3ccc(F)cc3)=C2)cc1 | inactive |  |
| Cc1cc(C(=O)CSc2nnnn2-c2ccccc2)c(C)n1-c1ccc2c(c1)OCO2 | inactive |  |
| Nc1cc(N)cc(C(=O)OCC(=O)Nc2cc(S(=O)(=O)N3CCCCC3)ccc2Cl)c1 | inactive |  |
| O=C(CCC(=O)N1CCSc2ccccc21)Nc1cccc(F)c1 | inactive |  |
| Cc1cc(C(=O)CSc2nc(N)cc(=O)[nH]2)c(C)n1CC1CCCO1 (stereo not drawn) | inactive |  |
| CCNC(=O)C[C@@H]1CC[C@H]2[C@H](COc3ccc(NC(C)=O)cc3C(=O)N2C)O1 | inactive |  |

| Compound | activity change, negative = inhibition (at 19.5 µM (top of the series)) | also measured |
| --- | --- | --- |
| Cc1cccc(/C=C/c2onc(C)c2S(=O)(=O)N2CCC(C(=O)NC(C)(C)C)CC2)c1 | inactive |  |
| O=[N+]([O-])c1ccc(/C=C/c2ccc3ccccc3n2)cc1 | inactive |  |
| O=C(NCc1ccccc1)C1Cc2c(-c3cccc(F)c3)ccnc2O1 (stereo not drawn) | inactive |  |
| CCC(=O)Nc1ccc2c(c1)OC[C@@H](C)N(C(=O)NC(C)C)C[C@H](C)[C@H](OC)CN(C)C2=O | inactive |  |
| O=C(O)c1cc(-c2ccccc2Cl)n(-c2cccc(Cl)c2)n1 | inactive |  |
| COC(=O)c1ccc(NC(=S)Nc2ccc(O)cc2)cc1 | inactive |  |
| Clc1cccc(-c2ccc3ncnc(NCc4cccs4)c3c2)c1 | inactive |  |
| Cc1cc(O)ccc1N=Cc1c(C(F)(F)F)[nH][nH]c1=O | inactive |  |
| Clc1ccc(-c2nc3ccc(Cl)cn3c2Cc2ccccc2)cc1 | inactive |  |
| CC(=O)NC(Cc1ccccc1)C(=O)Oc1ccc2ccccc2c1 (stereo not drawn) | inactive |  |
| Cc1cccc2sc(NNC(=O)C3COc4ccccc4O3)nc12 (stereo not drawn) | inactive |  |
| COc1ccc2nccc(/C=C/c3ccnc4ccc(OC)cc34)c2c1 | inactive |  |
| Cc1cccc(CN2CCN(c3ncccn3)CC2)c1 | inactive |  |
| O=C(c1ccc([N+](=O)[O-])cc1)N1CCN(c2cccc3[nH]ccc23)CC1 | inactive |  |
| O=C(CSc1cccc2cccnc12)N/N=C/c1ccc(F)cc1 | inactive |  |
| COc1ccc(C(=O)OCC(=O)Nc2ccc3[nH]c(=O)[nH]c3c2)c(OC)c1OC | inactive |  |
| O=C(NNc1ccc(-c2csnn2)cc1)c1cc(Cl)cc(Cl)c1 | inactive |  |
| CCOC(=O)/C=c1/s/c(=C/c2ccc3cc(OC)ccc3c2)c(=O)n1CC(=O)NCC1CCCO1 (stereo not drawn) | inactive |  |
| Oc1ccc(/C=N/Nc2nc(N3CCCC3)nc(N3CCCC3)n2)cc1O | inactive |  |
| CCn1c(=S)[nH]c2c(=O)n(C)c(=O)n(C)c21 |  | AC50: 10.8 µM |
| CCOC(=O)c1c(C)[nH]c(C)c1C(=O)COC(=O)/C=C/c1ccco1 | inactive |  |
| O=S(=O)(NC1CCCCCCC1)c1ccc(F)cc1 | inactive |  |

| Compound | activity change, negative = inhibition (at 19.5 µM (top of the series)) | also measured |
| --- | --- | --- |
| CN1C(=O)c2cc(NC(=O)c3cccc(F)c3)ccc2OC[C@@H]2O[C@@H](CC(=O)NCC3CCCCC3)CC[C@H]21 | inactive |  |
| CCOc1ccc(C(CC(=O)O)NC(=O)C23CC4CC(CC(C4)C2)C3)cc1OC (stereo not drawn) | inactive |  |
| CC(=O)N/C(=C\c1ccccc1)C(=O)Nc1ccc(O)cc1 |  | AC50: > 39 µM (inactive) |
| O=C(NCCc1cccc(Cl)c1)c1ccc(Cl)c([N+](=O)[O-])c1 | inactive |  |
| Cc1ccc2c(c1)-c1c(cnn1CC(=O)NC(C)CCc1ccco1)CO2 (stereo not drawn) | inactive |  |
| CCCc1[nH]c(=O)c(C#N)c2c1CCCC2 | inactive |  |
| Oc1ccc2c(ccc3[nH]cnc32)c1 | inactive |  |
| Oc1ccc(Cc2ccccc2Cl)c(O)c1 |  | AC50: > 39 µM (inactive) |
| Cc1nc(-c2ccccn2)nc(SCC(=O)c2ccc(F)cc2)c1Cl | inactive |  |
| CCSc1nnc(NC(=O)C2CC2c2ccccc2)s1 (stereo not drawn) | inactive |  |
| Cc1cccc(-n2c(=O)c3ccccc3n3c(=S)[nH]nc23)c1C | inactive |  |
| CCc1cc(-c2n[nH]c(C)c2-c2nc(C)cs2)c(O)cc1OC |  | AC50: > 39 µM (inactive) |
| CCOc1ccccc1-n1c(=S)sc2c(=O)n(-c3ccc(F)cc3)c(SCC(=O)O)nc21 |  | AC50: > 39 µM (inactive) |
| CO[C@@H]1CN(C)C(=O)c2cc(NC(=O)NC(C)C)ccc2OC[C@@H](C)N(S(C)(=O)=O)C[C@H]1C |  | activity change, negative = inhibition (at 3.5 µM (top of the series)): inactive |
| CNC(=S)N/N=C/c1c(C(=O)OC)cnn1-c1ccc(F)cc1F | inactive |  |
| CC12CCC3C(=CCc4cc(O)ccc43)C1CC(=NO)C2O (stereo not drawn) | inactive |  |
| COc1ccc([N+](=O)[O-])cc1NC(=S)NC(C)=O | inactive |  |
| COc1ccc(/C=C/c2nc3ccccc3n2C)cc1 | inactive |  |
| NS(=O)(=O)c1ccc(CCNC(=O)c2ccc(CS(=O)(=O)c3ccc(Br)cc3)o2)cc1 | inactive |  |
| O=C(OCn1nnc2ccccc2c1=O)c1cc2ccccc2o1 | inactive |  |
| Cc1cc(C(=O)Nc2ncc(C)s2)c2ccccc2n1 | inactive |  |
| CCOc1cc(/C=N/n2cnnc2)ccc1O |  | AC50: > 39 µM (inactive) |

| Compound | activity change, negative = inhibition (at 19.5 µM (top of the series)) | also measured |
| --- | --- | --- |
| CC(C)(C)C(=O)C1=C(O)C(=O)N(c2ccccc2)C1c1ccccc1 (stereo not drawn) | inactive |  |
| CC(=O)N1CCN(c2ccc(S(C)(=O)=O)cc2[N+](=O)[O-])CC1 | inactive |  |
| O=C(Nc1ccccc1F)N1C[C@@H]2N[C@H](C1)C2c1ccc(-c2cccc(F)c2)cc1 (stereo partly drawn) | inactive |  |
| COc1ccc(C2=NS(=O)(=O)N(C)C(C(=O)NC(C)c3ccccc3)=C2)cc1OC (stereo not drawn) | inactive |  |
| CC(C)NC(=O)N1CC[C@@H]2[C@@H](CO)N(C)c3ccc(-c4ccc(F)cc4)cc3[C@@H]21 |  | AC50: > 42 µM (inactive) |
| COc1ccc(NC2CCCN(C(=O)CN3CCOC3=O)C2)cc1OC (stereo not drawn) | inactive |  |
| COc1ccc(OC)c2sc(NNC(=O)C3COc4ccccc4O3)nc12 (stereo not drawn) | inactive |  |
| COc1cc(/C=C(/NC(=O)c2ccccc2)C(=O)Nc2ccc(O)cc2)c([N+](=O)[O-])cc1OC | inactive |  |
| Cc1onc(-c2ccccc2)c1C(=O)N(Cc1ccco1)Cc1cccs1 | inactive |  |
| CC[C@H](C)[C@@H]1NC(=O)c2cc([N+](=O)[O-])cc(I)c2NCC[C@@H](C(N)=O)NC(=O)[C@H](CCCN=C(N)N)NC1=O | inactive |  |
| CNC(=O)C[C@H]1CC[C@@H]2[C@H](COc3ccc(NS(=O)(=O)c4ccccc4C)cc3C(=O)N2C)O1 |  | activity change, negative = inhibition (at 21 µM (top of the series)): inactive |
| CCc1ccc(NC(=O)C2=CC(c3ccc(OC)cc3)=NS(=O)(=O)N2C)cc1 | inactive |  |
| CN1C(=O)c2cc(NC(=O)c3cccc(F)c3)ccc2OC[C@H]2O[C@H](CC(=O)NCC3CCCCC3)CC[C@@H]21 | inactive |  |
| COc1cc(/C=N/NC2=NCCCCC2)ccc1O | inactive |  |
| Cc1cc(N/N=C/c2ccncc2)nc2ccccc12 | inactive |  |
| O=C(C[C@H]1C[C@H]2c3cc(NC(=O)c4ccc5c(c4)OCO5)ccc3O[C@H]2[C@H](CO)O1)NCc1cccc(F)c1 | inactive |  |
| CN1C(=O)c2cc(NC(=O)c3cccc(F)c3)ccc2OC[C@@H]2O[C@@H](CC(=O)NCC3CCCCC3)CC[C@@H]21 | inactive |  |
| CC(C)NC(=O)N1CC[C@@H]2[C@H]1c1cc(-c3ccccc3)ccc1N(C)[C@H]2CO |  | AC50: > 39 µM (inactive) |
| CC(C)(C)N1[C@@H](CC(=O)O)c2cc(C(F)(F)F)ccc2S1(=O)=O | inactive |  |
| Cc1ccc(NC(=O)OC(C)N2CCCCC2)cc1NC(=O)OC(C)N1CCCCC1 (stereo not drawn) | inactive |  |
| COc1cc(O)ccc1C(=O)CCc1ccc(O)cc1 | inactive |  |
| CCN(C(=O)CN1C(=O)NC2(CCC(C)CC2)C1=O)C1CCCCC1 (stereo not drawn) | inactive |  |
